Assay results from patent US20190292189A1, “LIM KINASE INHIBITORS” (VIRONGY, LLC, priority 2016, published 2019).

Assays:
[1] = target: P450 2C9 (Homo sapiens, UniProt P11712); experiment: P450 inhibition at 10 μM; format: in vitro ADME
[2] = target: T1, P450 1A2 (Homo sapiens, UniProt P05177)
T1 sequence (P05177 1-516): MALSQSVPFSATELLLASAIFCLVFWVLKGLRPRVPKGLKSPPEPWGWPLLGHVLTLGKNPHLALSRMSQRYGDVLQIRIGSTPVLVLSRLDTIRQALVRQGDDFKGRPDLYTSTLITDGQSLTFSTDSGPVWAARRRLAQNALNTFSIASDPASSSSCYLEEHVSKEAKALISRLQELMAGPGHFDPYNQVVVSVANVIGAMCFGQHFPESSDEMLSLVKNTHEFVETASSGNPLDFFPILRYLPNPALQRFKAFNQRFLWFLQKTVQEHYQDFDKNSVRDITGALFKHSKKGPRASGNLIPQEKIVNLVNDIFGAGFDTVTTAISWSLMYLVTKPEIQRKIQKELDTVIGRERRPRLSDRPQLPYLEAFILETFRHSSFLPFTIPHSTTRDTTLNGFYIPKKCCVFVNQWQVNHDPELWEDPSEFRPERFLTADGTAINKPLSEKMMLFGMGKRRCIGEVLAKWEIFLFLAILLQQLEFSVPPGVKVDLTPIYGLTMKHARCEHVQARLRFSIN

P450 2C9, sequence (P11712 whole entry): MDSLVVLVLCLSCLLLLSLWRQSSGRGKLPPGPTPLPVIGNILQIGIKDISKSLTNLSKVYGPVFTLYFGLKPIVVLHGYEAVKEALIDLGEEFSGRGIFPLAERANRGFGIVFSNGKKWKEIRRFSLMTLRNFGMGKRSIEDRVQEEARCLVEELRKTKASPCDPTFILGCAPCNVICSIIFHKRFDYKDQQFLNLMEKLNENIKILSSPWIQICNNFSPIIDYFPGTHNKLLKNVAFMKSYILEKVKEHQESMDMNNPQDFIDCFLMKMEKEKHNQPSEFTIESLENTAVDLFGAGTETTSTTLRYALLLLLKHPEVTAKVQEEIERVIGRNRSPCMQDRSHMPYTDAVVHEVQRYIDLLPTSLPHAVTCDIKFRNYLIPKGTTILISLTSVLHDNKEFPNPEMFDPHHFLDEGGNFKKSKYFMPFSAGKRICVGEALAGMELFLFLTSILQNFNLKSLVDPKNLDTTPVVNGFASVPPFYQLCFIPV

Cc1c[nH]c2ncnc(-c3ccc(NC(=O)N(CCO)c4ccccc4)cc3)c12 [Compound 18b, 1-(2-Hydroxyethyl)-3-(4-(5-methyl-7H-pyrrolo[2,3-d]pyrimidin-4-yl)phenyl)-1-phenylurea]
P450 % inh. at 10 μM 2C9 [1]: 14%
P450 % inh. at 10 μM 1A2 [2]: −16/14/5/13%
